For assay [1], the target named is T1, HSA (Homo sapiens, UniProt P02768).
T1 construct: HSA and Tris were obtained from Sigma-Aldrich, St. Louis, MI, USA; purchased Sigma-Aldrich
The conditions noted are these: level of the Ka value; cited from earlier work.

The target in assay [2] is T1, HSA. Nature of the assay: Fluorescence quenching / fluorescence–thermodynamic experiment with HSA. It is filed as binding. Conditions: for Ksv: Stern–Volmer quenching constant, Tris-HCl pH 7.4; for Kd: Ka, binding constant, double logarithmic equation; for ∆H: enthalpy change of binding; for ∆H / ∆S: from Ka at 298, 303, 310 K; for ∆S: entropy change of binding; for fluorescence quenching mechanism: from Kq and trend of Ksv with temperature; for main binding forces: from signs of ΔH and ΔS. On the procedure: Prior to taking steady-state fluorescence measurements, the HSA and ligand mixture solution was given 2 min to equilibrate.
To account for the ligand concentration in the study system, which was much lower than the 10^−5 M level, the inner-filter effect of the ligand was neglected. The Stern–Volmer equation and double logarithmic equation (Equations (1)–(3)) were used to analyze the data of fluorescence spectra. Thermodynamic parameters were obtained using Equation (4) to determine the driving forces in the binding process. […] In addition, R and T are the gas constant at room temperature and the temperature in Kelvin, respectively.

Assay [3] concerns the target T1, HSA. The assay can be described thus: Site-specific competitive experiment (fluorescence) with site markers. The assay is classed as binding. Conditions: for Kd: Ka, room temperature, n = 3; for primary binding site on HSA: site-marker competition. How it is done:
The site-specific competitive experiment was conducted following the methodology described in the literature, using […], ibuprofen, and phenylbutazone as site-specific probes. First, a 1:1 complex of the site-specific probe with HSA was prepared in the buffer solution. […] This experiment was conducted under the same test conditions as the thermodynamic experiment, except at room temperature.

Assay [4] has as its target T1, HSA. Nature of the assay: Three-dimensional fluorescence spectra of HSA with ligand. The conditions noted are these: [HSA] = [ligand] = 1.0 × 10^−6 M; for Peak 1 ∆λ: free HSA 62; for Peak 2 ∆λ: free HSA 109; for Peak 2 λex/λem: free HSA 225/334; for Peak 1 λex/λem: free HSA 279/341; for Peak 1 F: free HSA 368.7; for Peak 2 F: free HSA 801.7; for change of Stokes shift of peak 2: versus free HSA.

Assay [5] addresses T1, HSA. Nature of the assay: Circular dichroism spectroscopy, HSA secondary structure (CONTINLL). The conditions noted are these: [HSA] = [ligand] = 1.0 × 10^−6 M; for β-Sheet: free HSA 7.7; for β-Turn: free HSA 14.1; for Random Coil: free HSA 26.9; for α-Helix: free HSA 51.4. The text has this:
The concentration of HSA and the ligands was set as 1.0 × 10^−6 M. The instrumental parameters were set as follows: path length of 1 mm and scanning speed of 100 nm min^−1.
On the technique in general: Circular dichroism is the unequal absorption of left and right circularly polarised light.

For assay [6], the target named is T1, HSA. Nature of the assay: Site-specific competitive experiment (fluorescence) with site markers. The conditions noted are these: Ka, with Digoxigenin, [Ligands]/[Site Marker] 1:1; room temperature; n = 3. The assay is classed as binding.
Where [7] appears, read: 298 K, quenching rate constant, Kq=Ksv/τ0, τ0 6.30 ns.
The mark [8] stands for this setting: 303 K, quenching rate constant, Kq=Ksv/τ0, τ0 6.30 ns.
Where [9] appears, read: 310 K, quenching rate constant, Kq=Ksv/τ0, τ0 6.30 ns.
[10] abbreviates: compared with maximum scattering collision quenching rate constant for dynamic quenching.
[11] abbreviates: Control group, [Ligands]/[Site Marker] 1:0.
The mark [12] stands for this setting: with Ibuprofen, [Ligands]/[Site Marker] 1:1.
Where [13] appears, read: with Phenylbutazone, [Ligands]/[Site Marker] 1:1.

Here are results for three compounds from PMC10487517, “Impacts of Halogen Substitutions on Bisphenol A Compounds Interaction with Human Serum Albumin: Exploring from Spectroscopic Techniques and Computer Simulations” (International Journal of Molecular Sciences, 2023).

Molecules are shown by their SMILES.

T1 sequence (P02768 25-609): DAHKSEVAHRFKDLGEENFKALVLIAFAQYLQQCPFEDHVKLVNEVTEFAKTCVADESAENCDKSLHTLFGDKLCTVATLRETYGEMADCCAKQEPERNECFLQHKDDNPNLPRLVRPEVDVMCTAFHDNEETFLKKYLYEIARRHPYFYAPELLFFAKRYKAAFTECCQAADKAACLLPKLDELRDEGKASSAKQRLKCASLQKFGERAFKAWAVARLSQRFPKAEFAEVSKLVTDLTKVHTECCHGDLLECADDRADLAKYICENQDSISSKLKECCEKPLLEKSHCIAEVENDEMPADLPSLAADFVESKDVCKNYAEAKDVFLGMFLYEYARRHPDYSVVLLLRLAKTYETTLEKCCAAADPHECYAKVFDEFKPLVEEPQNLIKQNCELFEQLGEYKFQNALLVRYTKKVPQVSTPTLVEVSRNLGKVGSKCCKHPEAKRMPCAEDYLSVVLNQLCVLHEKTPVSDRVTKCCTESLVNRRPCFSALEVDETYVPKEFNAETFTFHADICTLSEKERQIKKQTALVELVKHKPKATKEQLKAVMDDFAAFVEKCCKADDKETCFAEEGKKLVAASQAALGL

`CC(C)(c1ccc(O)cc1)c1ccc(O)cc1` [BPA, Bisphenol A]: the Ka on HSA [1] is around 1000 M⁻¹.

In the case of `CC(C)(c1cc(Br)c(O)c(Br)c1)c1cc(Br)c(O)c(Br)c1` [TBBPA, tetrabromobisphenol A], on HSA [2] (298 K), the “∆G” value was -7.906 kcal/mol and the Kd is 1.6 µM. For the same compound, the Kq at HSA [2] (setting [7]) is listed as 1.210 10^14 M^−1·s^−1. For the same compound, at HSA [2] (303 K), the “∆G” value is -8.114 kcal/mol, the Ksv is given as 7.534 10^5 M^−1 and the Kd is 1.39 µM. Besides, the Kq on HSA [2] (setting [8]) is recorded as 1.211 10^14 M^−1·s^−1. Besides, at HSA [2] (310 K), the “∆G” value is -8.408 kcal/mol, the Ksv is on record as 7.627 10^5 M^−1 and binding was characterised by a dissociation constant (Kd) of 1.18 µM. Further, the Kq on HSA [2] (setting [9]) is listed as 1.226 10^14 M^−1·s^−1. In addition, the Kq entry at HSA [2] (setting [10]) is given as “greater than 2.0 × 10^10 M^−1·s^−1”. At HSA [2], the “∆H” value was found to be 4.587 kcal/mol, the “∆S” value was 175.4 J·moL^−1·K^−1, the fluorescence quenching mechanism result is given as “static quenching mechanism” and the main binding forces result was “hydrophobic interactions”. At HSA [3] (setting [11]), this compound showed a Kd of 0.734 µM. This compound showed an equilibrium dissociation constant (Kd) on HSA [3] (setting [12]) of 0.74 µM. Besides, the affinity at HSA [3] (setting [13]), expressed as Kd, was 1.23 µM. The “primary binding site on HSA” value at HSA [3] is “site I”. Moreover, on HSA [4], the “Peak 1 ∆λ” value was 59 nm, the “Peak 2 ∆λ” value amounted to 103 nm, the “Peak 2 λex/λem” value is reported as 225/328 and the “Peak 1 λex/λem” value was 279/338. Further, at HSA [4], the “Peak 1 F” value is 254.0, the “Peak 2 F” value worked out at 575.5 and the “change of Stokes shift of peak 2” value stood at 6 nm. For the same compound, on HSA [5], the β-Sheet is 7.3%, the β-Turn is recorded as 14.7%, the “Random Coil” value amounted to 29.8% and the α-Helix was found to be 48.2%. Besides, the dissociation constant Kd on HSA [6] is 0.743 µM.

Turning to `CC(C)(c1cc(Cl)c(O)c(Cl)c1)c1cc(Cl)c(O)c(Cl)c1` [TCBPA, tetrachlorobisphenol A], at HSA [2] (298 K), the “∆G” value was -7.187 kcal/mol and the affinity, expressed as Kd, was 4.9 µM. On HSA [2] (setting [7]), the Kq is 0.2135 10^14 M^−1·s^−1. In addition, on HSA [2] (303 K), the “∆G” value is -7.084 kcal/mol, the Ksv is 1.296 10^5 M^−1 and the equilibrium dissociation constant (Kd) is 9.08 µM. Also, the Kq at HSA [2] (setting [8]) is given as 0.2083 10^14 M^−1·s^−1. Further, at HSA [2] (310 K), the “∆G” value is -6.943 kcal/mol, the Ksv was 1.289 10^5 M^−1 and the dissociation constant (Kd) was 11.9 µM. In addition, the Kq at HSA [2] (setting [9]) is given as 0.2073 10^14 M^−1·s^−1. Besides, the Kq entry at HSA [2] (setting [10]) is recorded as “greater than 2.0 × 10^10 M^−1·s^−1”. Moreover, at HSA [2], the “∆H” value is -13.23 kcal/mol; the “∆S” value is listed as −84.86 J·moL^−1·K^−1; the fluorescence quenching mechanism result is “mixed quenching mechanism”; the main binding forces result is “hydrogen bonds and van der Waals forces”. The same compound had a dissociation constant Kd on HSA [3] (setting [11]) of 1.37 µM. At HSA [3] (setting [12]), the equilibrium dissociation constant (Kd) was 1.32 µM. Also, the dissociation constant Kd on HSA [3] (setting [13]) was 3.13 µM. On HSA [3], the “primary binding site on HSA” value is reported as “site I”. For the same compound, at HSA [4], the “Peak 1 ∆λ” value was found to be 61 nm, the “Peak 2 ∆λ” value was 108 nm, the “Peak 2 λex/λem” value is reported as 226/334 and the “Peak 1 λex/λem” value is listed as 279/340. In addition, at HSA [4], the “Peak 1 F” value was found to be 323.4, the “Peak 2 F” value is on record as 692.6 and the “change of Stokes shift of peak 2” value was 1 nm. At HSA [5], the β-Sheet is 8.2%, the β-Turn is 14.2%, the “Random Coil” value is listed as 27.2% and the α-Helix is 50.4%. Moreover, the dissociation constant Kd at HSA [6] was 1.28 µM.

For orientation: Kd means the equilibrium constant for the complex coming apart. Read a low Kd as a tighter complex.
